Assay results: patent US11298363B2, “Triazolobenzazepines as vasopressin V1a receptor antagonists” (RICHTER GEDEON NYRT., priority 2017, dated 2022)

Assays:
mouse V1a receptor = mouse V1a receptor (Mus musculus, UniProt Q62463); test: Functional V1a in vivo test: inhibition of oxytocin-induced scratching behaviour; conditions: mice, 10 mg/kg p.o. pretreatment
Experimental: Functional V1a In Vivo Test
Male mice (NMRI, ToxiCoop) weighing 18-40 g were used. Animals were kept at least 5 days after delivery, during housing and measurements they were fed and drink ad libitum. The experiments were permitted by the Local Animal Protection Committee and carried out in accordance with the European Animal Protection Directives (EU Directive 2010/63/EU).
Animal behaviour was measured by an automated behavioral analysis system (LABORAS™). The sensors located below platforms detect the mechanical vibration generated by the movement of animal, and transform into an electrical signal (Quinn et al., J Neurosci Methods 2003, 130:83-92). After analyzing signals, the system analyzes the time spent with the following behavioral parameters: locomotion, immobility, climbing, grooming. The grooming algorithm by definition is able to measure the scratching behavioral response. During the experiment, mice were pretreated with the test substance or vehicle, and after the pretreatment period scratching-inducing compound (s.c. 0.3 mg/kg oxytocin) was administered, and then the animals were individually placed into measuring cages. […] To reduce the exploratory activity, the animals were measured after a 1-hour habituation to the cage. The behavioural parameters were compared to the parallel measured parameters of the control animals.
The behavioural inhibitory effect of the substances was calculated with average values of parallel measured vehicle treated groups and presented as the percentage of inhibition: 0% was expressed as average value of scratching behaviour of vehicle pretreated animals (and phys. saline s.c. pretreated with vehicle), while 100% was expressed as average value of scratching of vehicle pretreated animals that received oxytocin subcutaneously. For statistical analysis one-way analysis of variance (ANOVA) with Tukey post hoc test were used.

[1] = molecular target: T1, human vasopressin V1a receptor (Homo sapiens, UniProt P37288); test: Human vasopressin V1a receptor binding assay; conditions: 1321N1 cell membranes, [3H]vasopressin; read-out: Ki (nM) on hV1a cell line
T1 sequence (P37288 whole entry): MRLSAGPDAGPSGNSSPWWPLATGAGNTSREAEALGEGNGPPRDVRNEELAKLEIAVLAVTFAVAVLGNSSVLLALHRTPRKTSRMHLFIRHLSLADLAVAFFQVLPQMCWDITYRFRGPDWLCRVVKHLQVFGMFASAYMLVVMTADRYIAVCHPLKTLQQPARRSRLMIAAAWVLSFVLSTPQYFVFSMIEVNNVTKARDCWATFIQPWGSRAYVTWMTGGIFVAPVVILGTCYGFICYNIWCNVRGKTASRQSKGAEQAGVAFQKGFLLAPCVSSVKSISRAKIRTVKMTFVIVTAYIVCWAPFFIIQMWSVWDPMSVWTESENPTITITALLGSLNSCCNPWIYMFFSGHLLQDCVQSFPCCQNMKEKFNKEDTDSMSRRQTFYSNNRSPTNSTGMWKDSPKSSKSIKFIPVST
Outline: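 Ki values come from IC50 via Cheng-Prusoff (KD from prior Scatchard), averaged over at least two independent runs. Human V1a membranes were incubated with radioligand 60 minutes at 27° C., bound ligand collected by filtration; (Arg^8)-vasopressin at 1.2×10^−6 M defined non-specific binding.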

[2] = molecular target: T1, human vasopressin V1a receptor; test: Functional assay on human vasopressin V1a receptor expressing cell line (intracellular Ca2+ fluorescence); format: cell-based; conditions: 1321N1 cells, (Arg8)-vasopressin at EC80; read-out: IC50 (nM) on hV1a cell line

mouse V1a receptor, sequence (Q62463 whole entry): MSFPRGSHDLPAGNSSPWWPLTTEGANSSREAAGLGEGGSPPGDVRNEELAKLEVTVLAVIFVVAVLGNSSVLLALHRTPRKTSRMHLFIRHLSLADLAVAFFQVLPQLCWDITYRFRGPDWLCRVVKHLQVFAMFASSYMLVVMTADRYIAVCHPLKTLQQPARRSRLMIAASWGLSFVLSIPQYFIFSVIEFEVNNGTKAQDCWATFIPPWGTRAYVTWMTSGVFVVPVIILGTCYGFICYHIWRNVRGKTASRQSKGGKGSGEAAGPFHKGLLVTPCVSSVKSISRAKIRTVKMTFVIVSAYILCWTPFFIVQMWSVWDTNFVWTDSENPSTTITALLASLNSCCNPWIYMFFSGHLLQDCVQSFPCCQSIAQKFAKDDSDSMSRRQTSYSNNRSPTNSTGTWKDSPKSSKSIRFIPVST

Row | SMILES | inhibition (%) of oxytocin-induced scratching behaviour response (mouse V1a receptor) | Ki [1] | IC50 [2]
1 | COC1Cc2cc(Cl)ccc2-n2c(nnc2[C@H]2CC[C@H](Oc3ccccn3)CC2)C1 (mixture of isomers) [Example 58, 8-chloro-5-methoxy-1-[trans-4-(pyridin-2-yloxy)cyclohexyl]-5,6-dihydro-4H-[1,2,4]triazolo[4,3-a][1]benzazepine] | 96% | 0.3 nM | 1.4 nM
2 | COC1Cc2cc(Cl)ccc2-n2c(nnc2[C@H]2CC[C@H](C(F)(F)F)CC2)C1 (mixture of isomers) [Example 74, 8-chloro-5-methoxy-1-[trans-4-(trifluoromethyl)cyclohexyl]-5,6-dihydro-4H-[1,2,4]triazolo[4,3-a][1]benzazepine] | 30% | 4 nM | 2.6 nM
3 | CO[C@H]1Cc2cc(Cl)ccc2-n2c(nnc2[C@H]2CC[C@H](Oc3ccccn3)CC2)C1 (single isomer, unassigned) [Example 103] | 71% | 0.2 nM | 0.7 nM
4 | CO[C@@H]1Cc2cc(Cl)ccc2-n2c(nnc2[C@H]2CC[C@H](Oc3ccccn3)CC2)C1 (single isomer, unassigned) [Example 104] | 67% | 0.2 nM | 0.6 nM
5 | NCC(=O)N[C@@H]1Cc2cc(Cl)ccc2-n2c(nnc2[C@H]2CC[C@H](Oc3ccccn3)CC2)C1 [Example 12, N-{(5R)-8-chloro-1-[trans-4-(pyridin-2-yloxy)cyclohexyl]-5,6-dihydro-4H-[1,2,4]triazolo[4,3-a][1]benzazepin-5-yl}glycinamide] | 34% | 0.8 nM | 9 nM
6 | CCNC1Cc2cc(Cl)ccc2-n2c(nnc2[C@H]2CC[C@H](Oc3ccccn3)CC2)C1 (stereo partly drawn) [Example 23, 8-chloro-N-ethyl-1-[trans-4-(pyridin-2-yloxy)cyclohexyl]-5,6-dihydro-4H-[1,2,4]triazolo[4,3-a][1]benzazepine-5-amine] | 75% | 1 nM | 6.4 nM
7 | Clc1ccc2c(c1)CC(NC1CCOCC1)Cc1nnc([C@H]3CC[C@H](Oc4ccccn4)CC3)n1-2 (stereo partly drawn) [Example 29, 8-chloro-1-[trans-4-(pyridin-2-yloxy)cyclohexyl]-N-(tetrahydro-2H-pyran-4-yl)-5,6-dihydro-4H-[1,2,4]triazolo[4,3-a][1]benzazepine-5-amine] | 89% | 0.6 nM | 5.4 nM
8 | O[C@H]1Cc2cc(Cl)ccc2-n2c(nnc2[C@H]2CC[C@H](Oc3ccccn3)CC2)C1 [Example 56, (5S)-8-chloro-1-[trans-4-(pyridin-2-yloxy)cyclohexyl]-5,6-dihydro-4H-[1,2,4]triazolo[4,3-a][1]benzazepin-5-ol] | 92% | 0.3 nM | 1.2 nM
9 | CN(C)CCOC1Cc2cc(Cl)ccc2-n2c(nnc2[C@H]2CC[C@H](Oc3ccccn3)CC2)C1 (stereo partly drawn) [Example 60, 2-({8-chloro-1-[trans-4-(pyridin-2-yloxy)cyclohexyl]-5,6-dihydro-4H-[1,2,4]triazolo[4,3-a][1]benzazepin-5-yl}oxy)-N,N-dimethylethanamine] | 40% | 2 nM | 45 nM
10 | FC(F)(F)[C@H]1CC[C@H](c2nnc3n2-c2ccc(Cl)cc2CC2(C3)OCCO2)CC1 [Example 61, 8′-chloro-1′-[trans-4-(trifluoromethyl)cyclohexyl]-4′H,6′H-spiro[1,3-dioxolane-2,5′-[1,2,4]triazolo[4,3-a][1]benzazepine]] | 41% | 0.4 nM | 2.5 nM
11 | CCC[C@]1(OC)CC[C@@H](c2nnc3n2-c2ccc(Cl)cc2CC2(C3)OCCO2)CC1 [Example 243, 8′-chloro-1′-(cis-4-methoxy-4-propylcyclohexyl)-4′H,6′H-spiro[1,3-dioxolane-2,5-[1,2,4]triazolo[4,3-a][1]benzazepine]] |  | 0.4 nM | 2.8 nM
12 | CCO[C@]1(CC)CC[C@@H](c2nnc3n2-c2ccc(Cl)cc2CC(NC(C)C)C3)CC1 (stereo partly drawn) [Example 244, 8-chloro-1-(trans-4-ethoxy-4-ethylcyclohexyl)-N-(propan-2-yl)-5,6-dihydro-4H-[1,2,4]triazolo[4,3-a][1]benzazepin-5-amine] |  | 25 nM | 263 nM
13 | CCO[C@]1(CC)CC[C@@H](c2nnc3n2-c2ccc(Cl)cc2CC(N(C)C)C3)CC1 (stereo partly drawn) [Example 245, 8-chloro-1-(trans-4-ethoxy-4-ethylcyclohexyl)-N,N-dimethyl-5,6-dihydro-4H-[1,2,4]triazolo[4,3-a][1]benzazepin-5-amine] |  | 7 nM | 130 nM
14 | Clc1ccc2c(c1)CC1(Cc3nnc([C@@H]4CCN(Cc5ccccn5)C4)n3-2)OCCO1 [Example 246, 8′-chloro-1′-[(3R)-1-(pyridin-2-ylmethyl)pyrrolidin-3-yl]-4′H,6′H-spiro[1,3-dioxolane-2,5′-[1,2,4]triazolo[4,3-a][1]benzazepine]] |  | 0.5 nM | 3.4 nM
15 | COC1Cc2cc(Cl)ccc2-n2c(nnc2[C@@H]2CCN(Cc3cccnc3)C2)C1 (stereo partly shown) [Example 247] |  | 5 nM | 30 nM
16 | COC1Cc2cc(Cl)ccc2-n2c(nnc2[C@@H]2CCN(Cc3ccccn3)C2)C1 (stereo partly drawn) [Example 248, 8-chloro-5-methoxy-1-[(3R)-1-(pyridin-2-ylmethyl)pyrrolidin-3-yl]-5,6-dihydro-4H-[1,2,4]triazolo[4,3-a][1]benzazepine] |  | 2.3 nM | 22 nM
17 | Clc1ccc2c(c1)CC1(Cc3nnc([C@H]4CCN(Cc5cccnc5)C4)n3-2)OCCO1 [Example 249, 8′-chloro-1-[(3S)-1-(pyridin-3-ylmethyl)pyrrolidin-3-yl]-4′H,6′H-spiro[1,3-dioxolane-2,5′-[1,2,4]triazolo[4,3-a][1]benzazepine]] |  | 0.8 nM | 7 nM
18 | Clc1ccc2c(c1)CC1(Cc3nnc([C@@H]4CCN(Cc5cccnc5)C4)n3-2)OCCO1 [Example 250, 8′-chloro-1′-[(3R)-1-(pyridin-3-ylmethyl)pyrrolidin-3-yl]-4′H, 6′H-spiro[1,3-dioxolane-2,5′-[1,2,4]triazolo[4,3-a][1]benzazepine]] |  | 2.9 nM | 27 nM
19 | COC1Cc2cc(Cl)ccc2-n2c(nnc2[C@H]2CCN(Cc3cccnc3)C2)C1 (stereo partly drawn) [Example 251, 8-chloro-5-methoxy-1-[(3S)-1-(pyridin-3-ylmethyl)pyrrolidin-3-yl]-5,6-dihydro-4H-[1,2,4]triazolo[4,3-a][1]benzazepine] |  | 18.5 nM | 152 nM
20 | Clc1ccc2c(c1)CC1(Cc3nnc([C@H]4CCN(Cc5ccccn5)C4)n3-2)OCCO1 [Example 252, 8′-chloro-1′-[(3S)-1-(pyridin-2-ylmethyl)pyrrolidin-3-yl]-4′H,6′H-spiro[1,3-dioxolane-2,5′-[1,2,4]triazolo[4,3-a][1]benzazepine]] |  | 0.7 nM | 8.2 nM
21 | COC1Cc2cc(Cl)ccc2-n2c(nnc2[C@H]2CCN(Cc3ccccn3)C2)C1 (stereo partly drawn) [Example 253, 8-chloro-5-methoxy-1-[(3S)-1-(pyridin-2-ylmethyl)pyrrolidin-3-yl]-5,6-dihydro-4H-[1,2,4]triazolo[4,3-a][1]benzazepine] |  | 5 nM | 66 nM
